Consider 40 molecules from patent US20200029563A1, “NOVEL 5-SUBSTITUTED IMIDAZOLYLMETHYLDIOXOLANE DERIVATIVES” (Bayer CropScience Aktiengesellschaft, priority 2016, published 2020).

SMILES strings stand for the structures.

The first data set is described as follows: Log P by HPLC on reversed phase columns (EEC directive 79/831 Annex V.A8). The data set is classed as physicochemical. The following applies: Table 1; method [a]: LC-UV, acidic range, 0.1% formic acid in water and acetonitrile as eluent. On the procedure:
Measurement of Log P values was performed according to EEC directive 79/831 Annex V.A8 by HPLC (High Performance Liquid Chromatography) on reversed phase columns with the following methods: • ^[a] Log P value is determined by measurement of LC-UV, in an acidic range, with 0.1% formic acid in water and acetonitrile as eluent (linear gradient from 10% acetonitrile to 95% acetonitrile). • ^[b] Log P value is determined by measurement of LC-UV, in a neutral range, with 0.001 molar ammonium acetate solution in water and acetonitrile as eluent (linear gradient from 10% acetonitrile to 95% acetonitrile). • ^[c] Log P value is determined by measurement of LC-UV, in an acidic range, with 0.1% phosphoric acid and acetonitrile as eluent (linear gradient from 10% acetonitrile to 95% acetonitrile).
If more than one Log P value is available within the same method, all the values are given and separated by “+”.
Calibration was done with straight-chain alkan-2-ones (with 3 to 16 carbon atoms) with known Log P values (measurement of Log P values using retention times with linear interpolation between successive alkanones).
Take `Clc1ccc(Oc2ccc(C3(Cn4cncc4Cl)OCCO3)c(Cl)c2)cn1` [Compound I-13]: the LogP was 2.42^[a].
For the molecule `Clc1ccc(Oc2ccc(C3(Cn4cncc4Cl)OCCO3)c(Cl)c2)nc1` [Compound I-14], the LogP is 2.66^[a].
Same read-out and setting: with `C[Si](C)(C)C#Cc1ccc(Oc2ccc(C3(Cn4cncc4Br)OCCO3)c(Cl)c2)cc1` [Compound I-24] the figure was 4.98 ^[a].
Still for that read-out and setting: the same measure for `C#Cc1cncn1CC1(c2ccc(Oc3ccc(Cl)cc3)cc2Cl)OCC(C)O1` (racemic) [Compound I-26]: 3.15 ^[a].
The same measure, in the same setting: the same measure for `C#Cc1cncn1CC1(c2ccc(Oc3ccc(Cl)cc3)cc2Cl)OCCO1` [Compound I-22]: 2.94^[a]; for `FC(F)(F)c1ccc(Oc2ccc(C3(Cn4cncc4Br)OCCO3)c(Cl)c2)cc1` [Compound I-29]: 3.44 ^[a].
With `C#Cc1cncn1CC1(c2ccc(Oc3ccc(Cl)cc3)cc2C(F)(F)F)OCCO1` [Compound I-28], the LogP is 3.13 ^[a].
Still for that read-out and setting: with `CC1COC(Cn2cncc2Br)(c2ccc(Oc3ccc(C(F)(F)F)cc3)cc2Cl)O1` (racemic) [Compound I-31] the figure was 3.85 ^[a].
Same read-out and setting: the same measure for `Clc1cc(Oc2ccc(I)cc2)ccc1C1(Cn2cncc2Cl)OCCO1` [Compound I-03]: 3.82^[a]; for `Clc1cc(Oc2ccc(Br)cc2)ccc1C1(Cn2cncc2Br)OCCO1` [Compound I-21]: 3.48^[a]; for `FC(F)(F)c1cc(Oc2ccc(Br)cc2)ccc1C1(Cn2cncc2Cl)OCCO1` [Compound I-06]: 3.77^[a].
On the same count and under the same terms, with `Fc1nc(Oc2ccc(Cl)cc2)ccc1C1(Cn2cncc2F)OCCO1` [Compound I-17] the figure was 2.34^[a]; with `N#Cc1cncn1CC1(c2ccc(Oc3ccc(Cl)cc3)cc2Cl)OCCO1` [Compound I-33], 3.78 ^[a].
`C#Cc1ccc(Oc2ccc(C3(Cn4cncc4C#C)OCCO3)c(Cl)c2)cc1` [Compound I-25]: the LogP is 2.76 ^[a].
Same read-out and setting: with `FC(F)(F)c1cncn1CC1(c2ccc(Oc3ccc(Cl)cc3)cc2Cl)OCCO1` [Compound I-10] the figure was 4.64^[a]; with `CC1COC(Cn2cncc2Cl)(c2ccc(Oc3ccc(Cl)cc3)cc2Cl)O1` (mixture of isomers) [Compound I-09], 3.64^[a].
Usually chromatographic logP stands for a lipophilicity value derived from retention on a column. Read a high chromatographic logP as a more lipophilic compound. `C#Cc1cncn1CC1(c2ccc(Oc3ccc(C(F)(F)F)cc3)cc2Cl)OCCO1` [Compound I-30, 1-[(2-{2-chloro-4-[4-(trifluoromethyl)phenoxy]phenyl}-1,3-dioxolan-2-yl)methyl]-5-ethynyl-1H-imidazole] showed a chromatographic logP of 3.04.
For `Clc1cc(Oc2ccc(I)cc2)ccc1C1(Cn2cncc2Br)OCCO1` [Compound I-08], the LogP was 3.76^[a].
For the molecule `N#Cc1cncn1CC1(c2ccc(Oc3ccc(C(F)(F)F)cc3)cc2Cl)OCCO1` [Compound I-34], the LogP was 3.92 ^[a].
Same read-out and setting: with `Clc1cc(Oc2ccc(Br)cc2)ccc1C1(Cn2cncc2Cl)OCCO1` [Compound I-07] the figure was 3.53^[a].
Same read-out and setting: the same measure for `Fc1cncn1CC1(c2ccc(Oc3ccc(Cl)cc3)cc2Cl)OCCO1` [Compound I-11]: 2.88^[a].
Still for that read-out and setting: the same measure for `CC1COC(Cn2cncc2Br)(c2ccc(Oc3ccc(Cl)cc3)cc2Cl)O1` (racemic) [Compound I-23]: 3.68^[a]; for `N#Cc1cncn1CC1(c2ccc(Oc3ccc(Cl)cc3)cc2C(F)(F)F)OCCO1` [Compound I-35]: 4.03 ^[a].
With `Fc1cncn1CC1(c2ccc(Oc3ccc(Br)cc3)nc2C(F)(F)F)OCCO1` [Compound I-16], the LogP is 2.78^[a].
Still for that read-out and setting: with `Fc1cncn1CC1(c2ccc(Oc3ccc(Br)nc3)nc2C(F)(F)F)OCCO1` [Compound I-20] the figure was 2.17^[a].
The same measure, in the same setting: the same measure for `Fc1cncn1CC1(c2ccc(Oc3ccc(Cl)cc3)cc2C(F)(F)F)OCCO1` [Compound I-15]: 3.06^[a]; for `FC(F)(F)c1cc(Oc2ccc(Cl)cc2)ccc1C1(Cn2cncc2Br)OCCO1` [Compound I-27]: 3.58 ^[a].
On the same count and under the same terms, with `FC(F)(F)c1cc(Oc2ccc(Cl)nc2)ccc1C1(Cn2cncc2Cl)OCCO1` [Compound I-05] the figure was 2.58^[a].

Still in this data set, the particulars now being: Table 2 (I-RP compounds); method [a]: LC-UV, acidic range, 0.1% formic acid in water and acetonitrile as eluent.
With `C[Si](C)(C)C#Cc1cncn1CC1(c2ccc(Oc3ccc(C(F)(F)F)cc3)cc2Cl)OCCO1` [I-RP-05, 1-[(2-{2-chloro-4-[4-(trifluoromethyl)phenoxy]phenyl}-1,3-dioxolan-2-yl)methyl]-5-[(trimethylsilyl)ethynyl]-1H-imidazole], the chromatographic logP was 4.59.
With `C[Si](C)(C)C#Cc1cncn1CC1(c2ccc(Oc3ccc(Cl)cc3)cc2C(F)(F)F)OCCO1` [I-RP-04], the LogP is 4.67 ^[a].
On the same count and under the same terms, the same measure for `C[Si](C)(C)C#Cc1ccc(Oc2ccc(C3(Cn4cncc4C#C[Si](C)(C)C)OCCO3)c(Cl)c2)cc1` [I-RP-02]: 6.17 ^[a]; for `CC1COC(Cn2cncc2C#C[Si](C)(C)C)(c2ccc(Oc3ccc(Cl)cc3)cc2Cl)O1` (racemic) [I-RP-03]: 4.90 ^[a].
Still for that read-out and setting: the same measure for `C[Si](C)(C)C#Cc1cncn1CC1(c2ccc(Oc3ccc(Cl)cc3)cc2Cl)OCCO1` [I-RP-01]: 4.54 ^[a].

Still in this data set, the particulars now being: reversed phase HPLC columns; Table 1; method [a]: LC-UV, acidic range, 0.1% formic acid in water and acetonitrile as eluent.
In turn, `CC1COC(Cn2cncc2F)(c2ccc(Oc3ccc(Cl)cc3)cc2Cl)O1` (stereo not shown) [Compound I-12, 1-[[2-[2-chloro-4-(4-chlorophenoxy)phenyl]-4-methyl-1,3-dioxolan-2-yl]methyl]-5-fluoro-imidazole] yielded a chromatographic logP of 3.06.
The same measure, in the same setting: the same measure for `Fc1cncn1CC1(c2ccc(Oc3ccc(C(F)(F)F)nc3)nc2C(F)(F)F)OCCO1` [Compound I-19, 3-[2-[(5-fluoroimidazol-1-yl)methyl]-1,3-dioxolan-2-yl]-2-(trifluoromethyl)-6-[[6-(trifluoromethyl)-3-pyridyl]oxy]pyridine]: 2.53.
In turn, `Clc1ccc(Oc2ccc(C3(Cn4cncc4Br)OCCO3)c(Cl)c2)cc1` [Compound I-02, 5-bromo-1-[[2-[2-chloro-4-(4-chlorophenoxy)phenyl]-1,3-dioxolan-2-yl]methyl]imidazole] returned a chromatographic logP of 3.35.
Same read-out and setting: the same measure for `FC(F)(F)c1cc(Oc2ccc(Cl)cc2)ccc1C1(Cn2cncc2Cl)OCCO1` [Compound I-04, 5-chloro-1-[[2-[4-(4-chlorophenoxy)-2-(trifluoromethyl)phenyl]-1,3-dioxolan-2-yl]methyl]imidazole]: 3.75; for `CC1COC(Cn2cncc2C#N)(c2ccc(Oc3ccc(C(F)(F)F)cc3)cc2Cl)O1` (stereo not shown) [Compound I-32, 1-{[2-{2-chloro-4-[4-(trifluoromethyl)phenoxy]phenyl}-4-methyl-1,3-dioxolan-2-yl]methyl}-1H-imidazole-5-carbonitrile]: 4.08.
Same read-out and setting: the same measure for `Clc1ccc(Oc2ccc(C3(Cn4cncc4Cl)OCCO3)c(Cl)c2)cc1` [Compound I-01, 5-chloro-1-[[2-[2-chloro-4-(4-chlorophenoxy)phenyl]-1,3-dioxolan-2-yl]methyl]imidazole]: 3.29.
Still for that read-out and setting: the same measure for `Fc1cncn1CC1(c2ccc(Oc3ccc(Cl)cc3)nc2C(F)(F)F)OCCO1` [Compound I-18, 6-(4-chlorophenoxy)-3-[2-[(5-fluoroimidazol-1-yl)methyl]-1,3-dioxolan-2-yl]-2-(trifluoromethyl)pyridine]: 2.42.
